“And” between values parts separate entries of the source, which are not always exact repeats. Equal entries are not always repeated. Structures can show the parent of a compound that is named as a salt. Where two headings read alike, the source gives them in different places.
Legend:
[1] = tested on: L. donovani axenic amastigotes; assay: In vitro anti-leishmania activity (IC50 vs. L. donovani axenic amastigotes); format: cell-based; settings: Leishmania donovani
[2] = tested on: Trypanosoma brucei rhodesiense; assay: Anti-protozoan data: T.b.r. IC50; format: cell-based; settings: Tables VI(a), VI(c), read-out: T.b.r. IC50
[3] = tested on: Trypanosoma cruzi; assay: Anti-protozoan data: T. cruzi IC50; format: cell-based; settings: Tables VI(a), VI(c), read-out: T. cruzi IC50
[4] = tested on: Plasmodium falciparum; assay: Anti-protozoan data: P. falcip. IC50; format: cell-based; settings: Tables VI(a), VI(c), read-out: P. falcip. IC50
[5] = tested on: DNA; assay: DNA binding ΔTm; settings: Tables VI(a), VI(c)
[6] = tested on: Mycobacterium tuberculosis; assay: Compounds tested against Mycobacterium tuberculosis (MIC90); format: cell-based; settings: read-out: M. tb. MIC90
[7] = tested on: Candida albicans; assay: Anti-fungal data: Candida albicans; format: cell-based; settings: for MFC / MIC80: strain A39; for MIC: strain A39, read-out: Candida albicans (A39) MIC100
[8] = tested on: Aspergillus fumigatus; assay: Anti-fungal data: Aspergillus fumigatus; format: cell-based; settings: for MIC80 / MFC: strain DUMC 168.95; for MIC: strain DUMC 168.95, read-out: Aspergillus. Fumigatus (DUMC 168.95) MIC100
[9] = tested on: Cryptococcus neoformans; assay: Anti-fungal data: Cryptococcus neoformans; format: cell-based; settings: for MFC / MIC80: strain H99; for MIC: strain H99, read-out: Cryptococcus neoformans (H99) MIC100
[10] = in vitro
[11] = tested on: J774 macrophages; assay: Toxicity against J774 macrophages (IC50); format: cell-based; settings: Mus musculus, Tables I-III, V
[12] = Tables VI(a), VI(c), read-out: Leishmania donovani IC50
[13] = axenic amastigotes, Tables I-V, read-out: IC50 vs. L. donovani

Structure (SMILES)	IC50 [1, 12]	IC50 [2]	IC50 [3]	IC50 [4]	DNA binding Δ Tm [5]	MIC90 [6]	MFC [7]	MIC80 [7]	MIC [7]	MIC80 [8]	MIC [8]	MFC [9]	MIC80 [9]	MIC [9]	IC50 [10]	IC50 [1, 13]	MFC [8]	melting point	IC50 [11]
CC(C)NC(=N)c1ccc2oc(CCCCc3cc4cc(C(=N)NC(C)C)ccc4o3)cc2c1 [Compound 21, dihydrochloride]	12700 ± 2270 nM	98.8 nM	69100 nM	9.8 nM	6.60	0.07 µg/mL and 0.13 µM	> 100 µg/mL	10 µg/mL	10 µg/mL	> 100 µg/mL	> 100 µg/mL	> 100 µg/mL	100 µg/mL	100 µg/mL	> 163000 nM				
Cl.Cl.N=C(N)c1ccc(OCCCOc2cccc(-c3cc4cc(C(=N)N)ccc4o3)c2)cc1 [Compound 32, 2-(3-(3-(4-Carbamimidoylphenoxy)propoxy)phenyl)benzofuran-5-carboxamidine dihydrochloride]	3420 ± 900 nM	907 nM	16100 nM	39.7 nM	18.7	0.53 µg/mL and 1 µM	10 µg/mL	≤ 1 µg/mL	10 µg/mL	10 µg/mL	100 µg/mL				10400 nM	3420 ± 900 nM	> 100 µg/mL	175 to 178 °C	
CC(C)NC(=N)c1ccc(OCCCOc2cccc(-c3cc4cc(C(=N)NC(C)C)ccc4o3)c2)cc1.Cl.Cl [Compound 33, 2-(3-(3-(4-(N-Isopropylcarbamimidoyl)phenoxy)propoxy)phenyl)-N-isopropylbenzofuran-5-carboxamidine dihydrochloride]	4490 ± 560 nM	547 nM	93600 nM	61.3 nM	14.8	< 0.62 µg/mL and < 1 µM	10 µg/mL	≤ 1 µg/mL	10 µg/mL	10 µg/mL	100 µg/mL				26500 nM	4490 ± 560 nM	> 100 µg/mL	205 to 208 °C	
Cl.Cl.N=C(N)c1ccc(OCCCCCOc2cccc(-c3cc4cc(C(=N)N)ccc4o3)c2)cc1 [Compound 38, 2-(3-(5-(4-Carbamimidoylphenoxy)pentyloxy)phenyl)benzofuran-5-carboxamidine dihydrochloride]	10500 ± 2110 nM	863 nM	7780 nM	428 nM	21.1	1.96 µg/mL and 3.48 µM	12.5 µg/mL	0.78 µg/mL	6.25 µg/mL	50 µg/mL	> 100 µg/mL	3.12 µg/mL	0.39 µg/mL	0.781 µg/mL	3020 nM			165 to 168 °C	
CC(C)NC(=N)c1ccc(OCCCCCOc2cccc(-c3cc4cc(C(=N)NC(C)C)ccc4o3)c2)cc1.Cl.Cl [Compound 39, 2-(3-(5-(4-(N-Isopropylcarbamimidoyl)phenoxy)pentyloxy)phenyl)-N-isopropylbenzofuran-5-carboxamidine dihydrochloride]	6860 ± 2100 nM	452 nM	26000 nM	123 nM	20.8	1.12 µg/mL and 1.8 µM	100 µg/mL	10 µg/mL	100 µg/mL	10 µg/mL	100 µg/mL				10100 nM	6860 ± 2100 nM	> 100 µg/mL	225 to 227 °C	
Cl.Cl.N=C(N)c1ccc(OCCCCOc2ccc(-c3cc4cc(C(=N)N)ccc4o3)cc2)cc1 [Compound 47, 2-(4-(4-(4-Carbamimidoylphenoxy)butoxy)phenyl)benzofuran-5-carboxamidine dihydrochloride]	610 ± 530 nM	164 nM	2490 nM	141 nM	11.8	31.8 µg/mL and 59.8 µM	10 µg/mL	≤ 1 µg/mL	10 µg/mL	10 µg/mL	100 µg/mL				1300 nM	610 ± 530 nM	> 100 µg/mL	310 °C	
CC(C)NC(=N)c1ccc(OCCCCOc2ccc(-c3cc4cc(C(=N)NC(C)C)ccc4o3)cc2)cc1.Cl.Cl [Compound 48, 2-(4-(4-(4-(N-Isopropylcarbamimidoyl)phenoxy)butoxy)phenyl)-N-isopropylbenzofuran-5-carboxamidine dihydrochloride]	2970 ± 160 nM	1110 nM	21000 nM	302 nM	13.3	59.4 µg/mL and 95.6 µM	100 µg/mL	100 µg/mL	100 µg/mL	10 µg/mL	100 µg/mL				6920 nM		> 100 µg/mL	305 °C	
Cl.Cl.N=C(N)c1ccc(OCCCCCOc2ccc(-c3cc4cc(C(=N)N)ccc4o3)cc2)cc1 [Compound 50, 2-(4-(5-(4-Carbamimidoylphenoxy)pentyloxy)phenyl)benzofuran-5-carboxamidine dihydrochloride]		369 nM	4710 nM	313 nM	12.7	1.01 µg/mL and 1.84 µM	3.12 µg/mL	0.39 µg/mL	0.78 µg/mL	6.25 µg/mL	> 100 µg/mL	12.5 µg/mL	0.39 µg/mL	0.78 µg/mL	4190 nM			290 °C (dec.)	
CC(C)NC(=N)c1ccc(OCCCCCOc2ccc(-c3cc4cc(C(=N)NC(C)C)ccc4o3)cc2)cc1.Cl.Cl [Compound 51, 2-(4-(5-(4-(N-Isopropylcarbamimidoyl)phenoxy)pentyloxy)phenyl)-N-isopropylbenzofuran-5-carboxamidine dihydrochloride]	2080 ± 640 nM	302 nM	7680 nM	193 nM	18.7	0.9 µg/mL and 1.43 µM	100 µg/mL	100 µg/mL	100 µg/mL	100 µg/mL	100 µg/mL				20500 nM		> 100 µg/mL	260 to 263 °C	
Cl.Cl.c1cc(C2=NCCN2)ccc1OCCCCCCOc1ccc(-c2cc3cc(C4=NCCN4)ccc3o2)cc1 [Compound 55, 2-(2-(4-(6-(4-(4,5-Dihydro-1H-imidazol-2-yl)phenoxy)hexyloxy)phenyl)benzofuran-5-yl)-4,5-dihydro-1H-imidazole dihydrochloride]	3320 ± 970 nM	360 nM	1830 nM	116 nM	14.4	> 82.7 µg/mL and > 128 µM	10 µg/mL	10 µg/mL	10 µg/mL	10 µg/mL	> 100 µg/mL				1480 nM			275 to 277 °C	
N=C(N)c1ccc(OCCCCCOc2ccc(C(=N)N)cc2)cc1 [Pentamidine, pentamidine, reference compound]																2000 ± 600 nM			23000 ± 6000 nM
